Laboratory results as given in patent US10787426B2, “Method of treating autism spectrum disorders using piperazine-1-carboxamidine or pharmaceutically acceptable salt thereof” (NEUROVENTI, priority 2016, dated 2020).

Legend:
Type in all cases: in vivo, Sprague-Dawley (SD) rats
[1] = system: valproic acid-induced autism rat models; assay: Social preference test (familiar side vs novel side); details: 12.5 mg/kg or 25 mg/kg, intraperitoneal once a day, FIG. 2B
Protocol: (§1) In particular, valproic acid was subcutaneously injected into female adult Sprague-Dawley (SD) rats on day 12 of gestation, at a dose of 450 mg/kg and in an administration amount of 10 ml/kg, and then the SD rats gave birth to babies. When the born babies were 21 days old, they were grouped according to body weight and selected as autism rat models. As a group administered a solvent, on day 12 of gestation, female adult SD rats were administered a saline solution instead of valproic acid, at the same dose and in the same administration amount.
(§2) The autism rat models prepared according to Example <1-1> were intraperitoneally administered piperazine-1-carboxamidine 24 days after birth once a day at a predetermined time. At this time, piperazine-1-carboxamidine was administered at a dose of […], 12.5 mg/kg, 25 mg/kg, or 50 mg/kg, and in an amount of 10 ml/kg. The administration process was repeated until all the experiments were completed, and was performed 30 minutes before experiments, in the case of behavioral experiments.
To further verify an effect of piperazine-1-carboxamidine on treating autism spectrum disorder in valproic acid-induced autism rat models, an experiment for confirming social preference was carried out.
In particular, after social interest was confirmed in Example <2-1>, another identical type of rat were placed in the empty cage at one end of the box structure, and a social interaction experiment for the autism rat models as experimental groups was conducted for 10 minutes. The cage in which rat were placed in Example <2-1> was regarded as a familiar side, the cage in which new rat were placed was regarded as a novel side, and the degree of interest expressed by the autism rat models as experimental groups was confirmed using the EthoVision system by measuring residence time for each case. A significance test was performed using two-way ANOVA, followed by a Bonferroni's post hoc test.

[2] = system: valproic acid-induced autism rat models; assay: Social interaction test (three-compartment box, stranger vs empty cage); details: 6.25 mg/kg or more, intraperitoneal once a day, 10 minutes test, compared to solvent control (VPA), FIG. 2A
Protocol: as §1, §2
To verify an effect of piperazine-1-carboxamidine on treating autism spectrum disorder in valproic acid-induced autism rat models, changes in social interaction according to whether piperazine-1-carboxamidine was administered or not were examined (Crawley, Jacqueline N. Mental retardation and developmental disabilities research reviews 10.4 (2004): 248-258). […]

[3] = system: valproic acid-induced autism rat models; assay: Repetitive behavior test (grooming time); details: 12.5 mg/kg or more, intraperitoneal once a day; grooming time over 10 minutes; compared to autism-induced solvent control; FIG. 3
Protocol: as §1
The autism rat models prepared according to Example <1-1> were intraperitoneally administered piperazine-1-carboxamidine 24 days after birth once a day at a predetermined time. […]
To confirm an autism therapeutic effect of piperazine-1-carboxamidine in valproic acid-induced autism rat models based on these findings, a grooming level enhancement effect was evaluated in the autism rat models.
In particular, the autism rat models of Example <1-2>, which were administered piperazine-1-carboxamidine and aged between 33 days and 38 days, were placed in a cage (42 cm×29 cm×19 cm) without straw litter and adapted thereto for 10 minutes. Thereafter, the grooming time of the autism rat models was measured for 10 minutes to confirm the degree of repetitive behavior. […]

[4] = system: valproic acid-induced autism rat models; assay: Electroshock-induced seizure threshold (CC50); details: 25 mg/kg, intraperitoneal once a day; Litchfield-Wilcoxon method; versus valproic acid-exposed solvent control; FIG. 5
Protocol: as §1, §2
To confirm an effect of piperazine-1-carboxamidine on treating autism spectrum disorder in autism rat models, electroshock-induced seizure susceptibility was evaluated in autism rat models (Park, Hyung Geun, et al. European journal of pharmacology 574.2, 2007: 112-119; Browning, R. A., et al. Epilepsy research 6.1, 1990: 1-11). […]

[5] = system: valproic acid-induced autism rat models; assay: Open field test (hyperactivity and impulsive behavior); details: 25 or 50 mg/kg, intraperitoneal once a day, open field 10 minutes
Protocol: as §1, §2
To confirm an effect of piperazine-1-carboxamidine on treating autism spectrum disorder in autism rat models, general locomotor activity of the autism rat models was evaluated by an open field test for assaying enhancement and deterioration of motor functions, sedation, excitement, anxiety, depression, the degree of avoidance, and toxicity. […]

[6] = 10 minutes test, versus autism-induced solvent control

## N=C(N)N1CCNCC1 [piperazine-1-carboxamidine]
[1]; [6]
  level of interest in the familiar side, residence time: decreased
  level of interest in the novel side, residence time: increased
[1]; relative to normal controls
  social preference patterns: restored to levels similar to those of the normal controls
[2]; 30 minutes before test
  degree of interest in new rat (strangers), residence time: significantly increased
[2]
  degree of interest in the new empty side, residence time: decreased
[3]
  degree of grooming (grooming time, repetitive behavior): decreased
[4]
  CC50 (convulsive current 50, electroshock-induced seizure threshold): significantly increased
[5]; FIG. 4B
  emotional disturbance-related movement in the central region (ratio of moving distance in central region to total): reduced to levels of the normal controls
[5]; versus autism-induced solvent control, FIG. 4A
  degree of hyperactivity (total moving distance): significantly decreased
